Assay results as given in patent US20230248626A1, “Compositions Comprising (Bio)-Alkanediols” (Symrise AG, priority 0001, published 2023).
Values after ≈ are worked out from the molar mass of the structure shown. Read-outs that look alike come from different tables or passages of the source.

How the values were obtained:
[1] = system: Candida albicans; assay: MIC test (growth inhibition, 96 well plates, OD); type: cell-based; settings: read-out: Minimum Inhibitory Concentration (MIC)
Method: (§1) The MIC test is a test on growth inhibition. Estimation of Minimum Inhibitory Concentration (MIC) is executed in 96 well plates. Through the comparison of bacterial growth with positive and negative controls via optical density (OD), different concentrations of given test substances are evaluated.
(§2) Bacteria are cultivated under adjusted conditions based on information of the German Collection of Microorganisms and Cell Cultures (DSMZ) and stored in 50% Glycerol prior to use. Afterwards, the following method was applied: Adding growth medium (according to microorganism) to each well of the microplate. Adding the test-substances in different concentrations, positive controls (water controls only with medium) and negative controls (benchmarks according to organism). Adding the microorganism in a concentration of 10^6 CFU/ml (CFU=colony forming units). Incubation of the microplates at appropriate conditions.
(§3) According to resulting growth, substance concentrations are labelled either as inhibiting or not and MIC is defined as the lowest concentration where a complete growth inhibition is visible. Experiments at concentration limits (highest concentration labelled as growth and lowest concentration labelled as inhibiting) are performed at least twice.

[2] = system: Staphylococcus hominis; assay: MIC test (growth inhibition, 96 well plates, OD); type: cell-based; settings: read-out: Minimum Inhibitory Concentration (MIC)
Method: as §1, §2, §3

[3] = system: Propionibacterium acnes; assay: MIC test (growth inhibition, 96 well plates, OD); type: cell-based; settings: Cutibacterium acnes; read-out: Minimum Inhibitory Concentration (MIC)
Method: as §1, §2, §3

[4] = system: Staphylococcus aureus; assay: MIC test (growth inhibition, 96 well plates, OD); type: cell-based; settings: read-out: Minimum Inhibitory Concentration (MIC)
Method: as §1, §2, §3

[5] = system: Escherichia coli; assay: MIC test (growth inhibition, 96 well plates, OD); type: cell-based; settings: read-out: Minimum Inhibitory Concentration (MIC)
Method: as §1, §2, §3

[6] = system: Corynebacterium jeikeium; assay: MIC test (growth inhibition, 96 well plates, OD); type: cell-based; settings: read-out: Minimum Inhibitory Concentration (MIC)
Method: as §1, §2, §3

[7] = Sensory evaluation on the backside of the hand (spreading, fatty/greasy skin feel, absorption), untrained panellists; settings: for Absorption/remaining residue with alkanediol: scale 1 to 5
Method: For evaluating the sensory behaviour, liquid lipophilic components specified in the following table were blended with 1,2-heptanediol or 2,3-heptanediol or a mixture of 1,2-heptanediol and 2,3-heptanediol or 1,2-octanediol or 2,3-octanediol or a mixture of 1,2-octanediol and 2,3-octanediol (formulation) in a ratio of 85:15 and assessed by untrained panellists in comparison to the liquid lipophilic component without addition of the specified alkanediols (placebo).
The test procedure was carried as follows: For evaluating the sensory behaviour of 1,2-alkanediols and/or 2,3-alkanediols in combination with different liquid lipophilic components, oil components specified in the following table were blended with a 1,2-alkanediol or a 2,3-alkanediol or a mixture including a 1,2-alkanediol and a 2,3-alkanediol in a ratio as specified in Table 53 and assessed by untrained panellists in comparison to the liquid lipophilic component without addition of the 1,2-alkanediol or 2,3-alkanediol or the mixture including a 1,2-alkanediol and 2,3-alkanediol (placebo).
Test Procedure: • Hands were pre-washed with liquid soap by following a defined procedure; 30 μl of corresponding sample was applied on the backside of each hand (randomized); • After 30 s the spreading behaviour of the respective formulation on skin was evaluated versus the respective oil component without 1,2-heptanediol on a scale from 1 to 5 (1=low spreading; 5=high spreading); • The samples were distributed with the fingertips of middle and forefinger with 2×5 cycles; • After 2 minutes, the fatty/greasy skin feel was evaluated on a scale from 1 to 5 (1=low fatty/greasy skin feel; 5=high fatty/greasy skin feel); • Furthermore the applicants were asked to assess the absorption, i.e. the impression of amount of remaining residue on the skin on a scale from 1 to 5 (1=low absorption; 5=high absorption).

[8] = system: Aspergillus brasiliensis; assay: MIC and Kull synergy index of 1,2-/2,3-alkanediol mixtures; type: cell-based
[9] = system: Aspergillus brasiliensis (AB); assay: Preservation efficacy test (PET), European Pharmacopoeia 5.1.3; type: cell-based
Method: (§4) The preservation efficacy test (PET) was performed in accordance with European Pharmacopoeia § 5.1.3: The test is a reference European Pharmacopoeia method, that is to be used to evaluate the preservation system of a cosmetic or pharmaceutical preparation. The test consists of challenging the preparation under test, with prescribed inoculums of suitable microorganisms. The preservation porperties of the preparation are adequate if, in the conditions of the test, there is a significant fall or no increase, as appropriate, in the number of microorganisms in the inoculated preparations after the time prescribed.
(§5) The test microorganisms which were used, are the following:
(§6) Pseudomonas aeruginosa (PA) (bacterium); Staphylococcus aureus (SA) (bacterium); Escherichia coli (EC) (bacterium); Candida albicans (CA) (yeast); and Aspergillus brasiliensis (AB) (fungus).

[10] = system: Staphylococcus aureus (SA); assay: as above; type: cell-based
Method: as §4, §5, §6

[11] = system: Candida albicans (CA); assay: as above; type: cell-based
Method: as §4, §5, §6

[12] = system: Pseudomonas aeruginosa (PA); assay: as above; type: cell-based
Method: as §4, §5, §6

[13] = system: Escherichia coli (EC); assay: as above; type: cell-based
Method: as §4, §5, §6

[14] = system: human sebaceous glands; assay: Sebum production of micro-dissected, cultured human sebaceous glands (lipids/proteins after six days); type: cell-based; set-up: sebum reduction: concentration or dose not given beside the values; settings: compared to untreated control; six days; single donor (FIG. 4)
Method: Additional tests were performed with human sebaceous glands in order to verify the modulatory activity of different 1,2-alkanediols and 2,3-alkanediols on sebum secretion. Several microbial species on the skin are lipid dependent and feed on the human sebum (e.g. Corynebacterium, Propionibacterium). Accordingly, sebum reduction can indirectly support the reduction of microorganisms on the skin and in this way also indirectly support e.g. dandruff or acne reduction.
For these experiments sebaceous glands had been micro-dissected and cultured with medium. The medium without any supplement served as untreated control. Medium with 5 μM Capsaicin served as positive control. Additionally, culture medium was supplemented with different concentrations of alkanediols. After six days the sebaceous glands were collected and lipids and proteins quantified. The total lipid amount being representative of sebum production was obtained by normalizing the quantified lipids upon the quantified proteins (i.e. mg of lipids/mg of proteins).

[15] = blend with Caprylic Capric Triglyceride (CCT) (neutral oil), rows r187-r195, vs without
[16] = blend with Caprylic Capric Triglyceride (CCT) (neutral oil), rows r187-r195
[17] = single 1,2-alkanediol, read-out: MIC Component A

Q: For `CCCCCCCCC(O)CO` (stereo not drawn) [1,2-Decanediol, 1,2-decanediol, reference compound], which MIC [1] is on record?
A: 250 µg/mL (≈ 1430 µM)

Q: And the MIC [2]?
A: 500 µg/mL (≈ 2870 µM)

Q: What about the MIC [3] of the same compound?
A: 500 µg/mL (≈ 2870 µM)

Q: What about the MIC [4] of the same compound?
A: 250 µg/mL (≈ 1430 µM)

Q: And the MIC [5]?
A: 250 µg/mL (≈ 1430 µM)

Q: And the MIC [6]?
A: 2500 µg/mL (≈ 14300 µM)

Q: For `CCCCC(O)CO` (stereo not drawn) [1,2-hexanediol], which “Absorption/remaining residue Delta” value [7, 15] is on record?
A: 1.8

Q: What about the “Absorption/remaining residue with alkanediol” value [7, 16] of the same compound?
A: 2.8

Q: And the MIC [8, 17]?
A: 7500 µg/mL

Q: Which results are given for `CCCCCCC(O)CO` (stereo not drawn) [1,2-octanediol]?
A: MIC [1]: 2500 µg/mL (≈ 17100 µM); MIC [2]: 5000 µg/mL (≈ 34200 µM); MIC [4]: 2500 µg/mL (≈ 17100 µM); MIC [5]: 5000 µg/mL (≈ 34200 µM); MIC [6]: 5000 µg/mL (≈ 34200 µM); number of microorganisms after 2 days ([9]; 0.1% in wet wipes solution): 22,000,000; number of microorganisms after 7 days ([9]; 0.1% in wet wipes solution): 8,500,000; number of microorganisms after 14 days ([9]; 0.1% in wet wipes solution): 11,000,000; number of microorganisms after 28 days ([9]; 0.1% in wet wipes solution): 12,000,000; number of microorganisms after 2 days ([9]; 0.2% in o/w emulsion): 2,400,000; number of microorganisms after 7 days ([9]; 0.2% in o/w emulsion): 2,700,000; number of microorganisms after 14 days ([9]; 0.2% in o/w emulsion): 2,100,000; number of microorganisms after 28 days ([9]; 0.2% in o/w emulsion): 1,200,000; number of microorganisms after 2 days ([10]; 0.1% in wet wipes solution): 425; number of microorganisms after 7 days ([10]; 0.1% in wet wipes solution): 50; number of microorganisms after 14 days ([10]; 0.1% in wet wipes solution): 50; number of microorganisms after 28 days ([10]; 0.1% in wet wipes solution): 50; number of microorganisms after 2 days ([10]; 0.2% in o/w emulsion): 1; number of microorganisms after 7 days ([10]; 0.2% in o/w emulsion): 1; number of microorganisms after 14 days ([10]; 0.2% in o/w emulsion): 1; number of microorganisms after 28 days ([10]; 0.2% in o/w emulsion): 1; number of microorganisms after 2 days ([11]; 0.1% in wet wipes solution): 4,700,000; number of microorganisms after 7 days ([11]; 0.1% in wet wipes solution): 3,900,000; number of microorganisms after 14 days ([11]; 0.1% in wet wipes solution): 5,800,000; number of microorganisms after 28 days ([11]; 0.1% in wet wipes solution): 9,300,000; number of microorganisms after 2 days ([11]; 0.2% in o/w emulsion): 950,000; number of microorganisms after 7 days ([11]; 0.2% in o/w emulsion): 15,000; number of microorganisms after 14 days ([11]; 0.2% in o/w emulsion): 36; number of microorganisms after 28 days ([11]; 0.2% in o/w emulsion): 1; number of microorganisms after 2 days ([12]; 0.1% in wet wipes solution): 1,300,000; number of microorganisms after 7 days ([12]; 0.1% in wet wipes solution): 2,500,000; number of microorganisms after 14 days ([12]; 0.1% in wet wipes solution): 750,000; number of microorganisms after 28 days ([12]; 0.1% in wet wipes solution): 350,000; number of microorganisms after 2 days ([12]; 0.2% in o/w emulsion): 1; number of microorganisms after 7 days ([12]; 0.2% in o/w emulsion): 1; number of microorganisms after 14 days ([12]; 0.2% in o/w emulsion): 1; number of microorganisms after 28 days ([12]; 0.2% in o/w emulsion): 1; number of microorganisms after 2 days ([13]; 0.1% in wet wipes solution): 1,300,000; number of microorganisms after 7 days ([13]; 0.1% in wet wipes solution): 3,500,000; number of microorganisms after 14 days ([13]; 0.1% in wet wipes solution): 2,100,000; number of microorganisms after 28 days ([13]; 0.1% in wet wipes solution): 2,300; number of microorganisms after 2 days ([13]; 0.2% in o/w emulsion): 1; number of microorganisms after 7 days ([13]; 0.2% in o/w emulsion): 1; number of microorganisms after 14 days ([13]; 0.2% in o/w emulsion): 1; number of microorganisms after 28 days ([13]; 0.2% in o/w emulsion): 1; Absorption/remaining residue Delta ([7]; blend with Argan Oil vs without): 1.2; Absorption/remaining residue with alkanediol ([7]; blend with Argan Oil): 2.6; Absorption/remaining residue Delta ([7]; blend with Avocado Oil vs without): 1.2; Absorption/remaining residue with alkanediol ([7]; blend with Avocado Oil): 2.6; Absorption/remaining residue Delta ([7]; blend with Cacao butter vs without): 0.6; Absorption/remaining residue with alkanediol ([7]; blend with Cacao butter): 3; Absorption/remaining residue Delta ([7]; blend with Castor Oil vs without): 1; Absorption/remaining residue with alkanediol ([7]; blend with Castor Oil): 3.4; Absorption/remaining residue Delta ([7]; blend with Coconut Oil vs without): 0.8; Absorption/remaining residue with alkanediol ([7]; blend with Coconut Oil): 3; Absorption/remaining residue Delta ([7]; blend with Grapeseed Oil vs without): 1; Absorption/remaining residue with alkanediol ([7]; blend with Grapeseed Oil): 1.6; Absorption/remaining residue Delta ([7]; blend with Helianthus Annuus (Sunflower) Seed Oil vs without): 1.8; Absorption/remaining residue with alkanediol ([7]; blend with Helianthus Annuus (Sunflower) Seed Oil): 2; Absorption/remaining residue Delta ([7]; blend with Octocrylene (Neo Heliopan 303), vs without): 0.5; Absorption/remaining residue with alkanediol ([7]; blend with Octocrylene (Neo Heliopan 303)): 3.5; Absorption/remaining residue Delta ([7]; blend with Olive Oil vs without): 1.4; Absorption/remaining residue with alkanediol ([7]; blend with Olive Oil): 2.6; MIC [8, 17]: 2500 µg/mL

Q: Which sebum reduction [14] does the source give for `CCCCCCCCCC(O)CO` (stereo not drawn) [1,2-undecanediol] here?
A: 44%

Q: For `CCCCCCCCC(O)C(C)O` (stereo not drawn) [2,3-Undecanediol, 2,3-undecanediol], which sebum reduction [14] is on record?
A: more than 50%

Q: What about the MIC [1] of the same compound?
A: 250 µg/mL (≈ 1330 µM)

Q: And the MIC [2]?
A: 250 µg/mL (≈ 1330 µM)

Q: And the MIC [3]?
A: 250 µg/mL (≈ 1330 µM)

Q: What about the MIC [4] of the same compound?
A: 250 µg/mL (≈ 1330 µM)

Q: What about the MIC [5] of the same compound?
A: 500 µg/mL (≈ 2660 µM)

Q: What about the MIC [6] of the same compound?
A: 250 µg/mL (≈ 1330 µM)

Q: What does the source list for `CCCC(O)C(C)O` (stereo not drawn) [2,3-hexandiol, 2,3-hexanediol]?
A: Absorption/remaining residue Delta [7, 15]: 1.8; Absorption/remaining residue with alkanediol [7, 16]: 2.8; MIC ([8]; single 2,3-alkanediol, read-out: MIC Component B): 20000 µg/mL
